Reference: patent US20070244190A1, “Neobritannilactone B and acetyl neobritannilactone B” (priority 2006, published 2007)
Where two headings read alike, the source gives them in different places.

Experiments:
AGS cells [1] = assay: Cell viability, trypan blue exclusion, 24 h; format: cell-based; details: mean ± SE, n=3, read-out: IC50, growth of human cancer cells
Procedure: (§1) Cell Culture and Chemicals. The COLO 205 and HT 29 cell lines were isolated from human colon adenocarcinoma (ATCC CCL-222 and HTB-38); human promyelocytic leukemia (HL-60) cells were obtained from American Type Culture Collection (Rockville, Md.). The human AGS gastric carcinoma cell lines (CCRC 60102) were obtained from the Food Industry Research and Development Institute (Hsinchu, Taiwan). Cell lines were grown at 37° C. in 5% CO2 dioxide atmosphere in RPMI for COLO 205, HT-29, and HL-60 cells and DMEM/F12 for AGS cells, all supplemented with 10% heat-inactivated fetal bovine serum (GIBCO BRL, Grand Island, N.Y.) (100 units/mL of penicillin, 100 μg/mL of streptomycin), and 2 mM L-glutamine (GIBCO BRL). Selected compounds were dissolved in dimethyl sulfoxide (DMSO). Propidium iodide was obtained from Sigma Chemical Co. (St. Louis, Mo.).
(§2) Determination of Cell Viability. Human cancer cells were treated either with DMSO (0.01%) or the selected compounds (5-100 μM). Cell viability was determined at 24 h based on trypan blue exclusion assay. The viability percentage was calculated based on the percentage of unstained cells. Suspensions of cells were diluted 1:1 with 0.5% trypan blue solution. Stained and unstained cells were counted in a hemocytometer.

COLO 205 cells [2] = assay: Cell viability, trypan blue exclusion, 24 h; format: cell-based; details: COLO 205, 24 h, mean ± SE, n=3, read-out: IC50, growth of human cancer cells
Procedure: as §1, §2

HL-60 cells [3] = assay: Cell viability, trypan blue exclusion, 24 h; format: cell-based; details: HL-60, 24 h, mean ± SE, n=3, read-out: IC50, growth of human cancer cells
Procedure: as §1, §2

HT-29 cells [4] = assay: Cell viability, trypan blue exclusion, 24 h; format: cell-based; details: HT-29, 24 h, mean ± SE, n=3, read-out: IC50, growth of human cancer cells
Procedure: as §1, §2

AGS cells [5] = assay: Apoptosis (sub-G1) by flow cytometry; format: cell-based, human; details: 24 h, mean ± SE
Procedure: as §1
(§3) Flow Cytometry. Human cancer cells (2×10^5) were cultured in 60-mm Petri dishes and incubated for 24 h. The apoptotic cells (sub-G1) in the selected compounds and treated cells were measured by flow cytometry analysis. Then cells were harvested, washed with PBS, resuspended in 200 μL of PBS, and fixed in 800 μL of iced 100% ethanol at −20° C. After being left to stand overnight, the cell pellets were collected by centrifugation, resuspended in 1 mL of hypotonic buffer (0.5% Triton X-100 in PBS and 0.5 μg/mL RNase), and incubated at 37° C. for 30 min. Then 1 mL of propidium iodide solution (50 μg/mL) was added and the mixture was allowed to stand on ice for 30 min. Fluorescence emitted from the propidium iodide-DNA complex was quantitated after excitation of the fluorescent dye by FACScan cytometry (Becton Dickinson, San Jose, Calif.).
(§4) The compounds isolated from Inula were tested for their effects on the apoptotic ratio in human cancer cells.

COLO 205 cells [6] = assay: Apoptosis (sub-G1) by flow cytometry; format: cell-based, human; details: 24 h, mean ± SE
Procedure: as §1, §3, §4

HL-60 cells [7] = assay: Apoptosis (sub-G1) by flow cytometry; format: cell-based, human; details: 24 h, mean ± SE
Procedure: as §1, §3, §4

HT-29 cells [8] = assay: Apoptosis (sub-G1) by flow cytometry; format: cell-based, human; details: 24 h, mean ± SE
Procedure: as §1, §3, §4

SMILES	apoptotic ratio (AGS cells [5]; 5 μM)	apoptotic ratio (AGS cells [5]; 10 μM) [%]	apoptotic ratio (AGS cells [5]; 25 μM)	apoptotic ratio (AGS cells [5]; 50 μM)	apoptotic ratio (AGS cells [5]; 100 μM)	apoptotic ratio (COLO 205 cells [6]; COLO 205, 5 μM)	apoptotic ratio (COLO 205 cells [6]; COLO 205, 10 μM)	apoptotic ratio (COLO 205 cells [6]; COLO 205, 25 μM)	apoptotic ratio (COLO 205 cells [6]; COLO 205, 50 μM)	apoptotic ratio (COLO 205 cells [6]; COLO 205, 100 μM) [%]	apoptotic ratio (HL-60 cells [7]; HL-60, 5 μM)	apoptotic ratio (HL-60 cells [7]; HL-60, 10 μM) [%]	apoptotic ratio (HL-60 cells [7]; HL-60, 25 μM) [%]	apoptotic ratio (HL-60 cells [7]; HL-60, 50 μM) [%]	apoptotic ratio (HL-60 cells [7]; HL-60, 100 μM)	apoptotic ratio (HT-29 cells [8]; HT-29, 5 μM) [%]	apoptotic ratio (HT-29 cells [8]; HT-29, 10 μM) [%]	apoptotic ratio (HT-29 cells [8]; HT-29, 25 μM)	apoptotic ratio (HT-29 cells [8]; HT-29, 50 μM) [%]	apoptotic ratio (HT-29 cells [8]; HT-29, 100 μM)	further results
C=C1C(=O)OC2CC(C)=C(C(C)CCCO)C(OC(=O)C(C)CC)C12 (stereo not drawn) [Compound 1, 6β-O-(2-methylbutyryl)-britannilactone]	10.89 ± 1.69%	11.38 ± 1.12	17.76 ± 0.76%	28.48 ± 1.20%	27.10 ± 0.54%	5.33 ± 0.78%	5.86 ± 0.32%	15.20 ± 1.02%	27.21 ± 5.51%	36.24 ± 0.76	6.41 ± 0.79%	5.36 ± 0.61	10.53 ± 3.34	28.60 ± 2.67	27.05 ± 0.54%	4.24 ± 0.40	3.68 ± 0.47	3.93 ± 0.16%	5.16 ± 0.93	6.40 ± 0.28%	IC50 (AGS cells [1]): 31.3 ± 1.8 µM; IC50 (COLO 205 cells [2]): 58.7 ± 1.32 µM; IC50 (HL-60 cells [3]): 47.1 ± 1.55 µM; IC50 (HT-29 cells [4]): 48.1 ± 2.26 µM
C=C1C(=O)OC2CC(C)=C(C(C)CCCOC(C)=O)C(OC(C)=O)C12 (stereo not drawn) [Compound 7, 1,6-O,O-diacetylbritannilactone]	7.49 ± .88%	5.79 ± 0.64	11.29 ± 2.16%	10.79 ± 2.79%	8.12 ± .26%	6.94 ± .33%	8.69 ± 1.65%	26.95 ± 0.30%	15.44 ± .08%	17.82 ± 2.26	6.14 ± .20%	8.67 ± 2.06	21.13 ± 0.37	27.02 ± 2.69	22.24 ± 1.06%	11.19 ± 3.98	11.15 ± 2.84	11.50 ± .92%	13.08 ± 0.63	20.88 ± .09%	IC50 (AGS cells [1]): 66.4 ± 6.29 µM; IC50 (COLO 205 cells [2]): 56.7 ± 3.66 µM; IC50 (HL-60 cells [3]): 35.3 ± 0.44 µM; IC50 (HT-29 cells [4]): 76.6 ± 5.5 µM
C=C1C(=O)O[C@@H]2CC(C)=C([C@@H](C)CCCO)[C@H](O)[C@H]12 [Compound 5, britannilactone]	7.93 ± 1.71%	10.37 ± 0.98	10.16 ± .28%	8.97 ± 0.66%	10.37 ± 0.66%	11.90 ± 3.61%	12.28 ± 5.24%	12.79 ± 1.84%	15.54 ± 2.14%	28.31 ± 1.89	7.22 ± 1.54%	5.64 ± 2.00	5.24 ± 0.67	8.01 ± 1.34	12.83 ± .06%	5.75 ± 1.77	6.16 ± 1.23	6.49 ± 1.07%	6.59 ± 0.54	7.55 ± .08%	IC50 (AGS cells [1]; Homo sapiens): > 100 µM; IC50 (COLO 205 cells [2]; Homo sapiens): > 100 µM; IC50 (HL-60 cells [3]; Homo sapiens): > 100 µM; IC50 (HT-29 cells [4]; Homo sapiens): > 100 µM
CC(=O)OCCC[C@H](C)C1=C[C@@H]2[C@H](C)C(=O)O[C@@H]2C[C@@]1(C)O [Compound 2, neobritannilactone A]	9.23 ± 0.22%	9.83 ± 2.27	10.57 ± 2.11%	9.41 ± 2.83%	9.81 ± 2.30%	4.08 ± 0.21%	6.51 ± 2.28%	4.28 ± .93%	5.44 ± 0.47%	25.50 ± 3.46	6.68 ± 1.51%	6.31 ± 0.98	6.19 ± 0.01	6.63 ± 2.21	16.31 ± 1.63%	3.94 ± 1.05	4.24 ± 0.24	5.17 ± 1.70%	4.09 ± 0.77	7.73 ± 3.22%	IC50 (AGS cells [1]): > 100 µM; IC50 (COLO 205 cells [2]): 97.9 ± 1.16 µM; IC50 (HL-60 cells [3]): 85.8 ± 4.97 µM; IC50 (HT-29 cells [4]): > 100 µM
C=C1C(=O)OC2CC(C)=C(C(C)CCCOC(C)=O)C(O)C12 (stereo not drawn) [Compound 6, 1-O-acetylbritannilactone]	15.37 ± 6.22%	17.28 ± 2.29	14.66 ± 1.38%	14.84 ± .58%	18.85 ± .68%	13.44 ± .25%	11.32 ± .421%	16.48 ± 3.75%	16.59 ± 0.71%	35.79 ± 1.36	4.05 ± 0.31%	7.26 ± 2.15	4.37 ± 0.57	5.69 ± 0.60	22.19 ± 4.14%	5.36 ± 1.80	6.81 ± 2.14	11.68 ± 3.02%	9.26 ± 1.80	14.87 ± .90%	IC50 (AGS cells [1]): > 100 µM; IC50 (COLO 205 cells [2]): > 100 µM; IC50 (HL-60 cells [3]): > 100 µM; IC50 (HT-29 cells [4]): 96 ± 12.5 µM
